The results in this text go back to PubChem BioAssay AID1996.

Converted amounts (≈) assume the structure as drawn.

For orientation: solubility (kinetic) means the concentration staying in solution when a stock, usually in DMSO, is diluted into the medium.

For this data set the following is noted: buffer; pH 7.4; 200.0 µM.
For `O=C(NCCNC(=O)c1ccco1)c1ccc(Cl)c(Cl)c1`, the solubility (kinetic) amounted to 0.0447 mg/mL (≈ 137 µM).

The compound `O=C(COc1ccc(C(=O)c2ccccc2)cc1)Nc1ncccc1O` yielded a solubility (kinetic) of 0.0249 mg/mL (≈ 71.5 µM).

`CCOc1cc(C=O)ccc1OCC(N)=O`: the kinetic solubility was more than 0.0335 mg/mL.

As for `CC(C)CC(=O)Nc1ccc(S(=O)(=O)N2CCCC2)cc1`, the solubility (kinetic) was more than 0.0466 mg/mL.

In turn, `CCC(C)CN1CCC(CO)(Cc2ccccc2Cl)CC1` (centres undefined) showed a solubility (kinetic) of more than 0.0465 mg/mL.

`CCOC(=O)CSc1nc2ccccc2n2c(C)nnc12` had a kinetic solubility of more than 0.0454 mg/mL.

`Cn1c(=O)c2cc3ccccc3nc2n(C)c1=O` yielded a solubility (kinetic) of 0.0043 mg/mL (≈ 17.8 µM).

Compound `COc1ccc(Cl)cc1NC(=O)C(OC)c1ccccc1` (centres undefined) displayed a kinetic solubility of 0.0039 mg/mL (≈ 12.8 µM).

Regarding `O=c1c(Cc2ccc(Cl)cc2)c(O)ccn1Cc1cccs1`, the solubility (kinetic) came to 0.0046 mg/mL (≈ 13.9 µM).

As for `COc1ccc(C(=O)Nc2nc3ccccc3[nH]2)cc1`, the kinetic solubility was determined as 0.0041 mg/mL (≈ 15.3 µM).

`CCOc1ccc(Br)cc1S(=O)(=O)NC1=NCCCCC1` yielded a kinetic solubility of more than 0.0563 mg/mL.

With `Cn1c(SCc2cccnc2)nc2c(c1=O)SCC2`, the solubility (kinetic) is more than 0.0437 mg/mL.

Compound `Cc1c(NCc2ccccc2O)c(=O)n(-c2ccccc2)n1C` gave a kinetic solubility of more than 0.0464 mg/mL.

Compound `O=C(CCc1ccccc1)Nc1cccc(S(=O)(=O)N2CCOCC2)c1` came in with a solubility (kinetic) of 0.0506 mg/mL (≈ 135 µM).

As for `O=C(Nc1cc(S(=O)(=O)N2CCCC2)ccc1Cl)c1ccncc1`, the solubility (kinetic) is more than 0.0549 mg/mL.

Consider `COc1ccc(NC(=O)/C=C/c2cc(OC)c(OC)c(OC)c2)cn1`, for which the kinetic solubility came to 0.0005 mg/mL (≈ 1.45 µM).

The compound `COc1ccccc1NS(=O)(=O)c1ccc2oc(=S)[nH]c2c1` displayed a solubility (kinetic) of more than 0.0505 mg/mL.

`CC(C)(C)CC(=O)Nc1ccc(S(=O)(=O)N2CCCC2)cc1` registered a solubility (kinetic) of more than 0.0487 mg/mL.

The compound `CC1CC(C)CN(C(=O)c2cccc(NC(=O)CC3SC(N4CCCCC4)=NC3=O)c2)C1` (centres undefined) showed a solubility (kinetic) of 0.0671 mg/mL (≈ 147 µM).

In turn, `CCOC(=O)c1c(C)[nH]c(C(=O)COC(=O)C2CC2)c1C` registered a kinetic solubility of 0.0078 mg/mL (≈ 26.6 µM).

`Cc1cccc(N2CCc3c2nc2ccc(Br)cc2c3N)c1.Cl` registered a solubility (kinetic) of 0.0006 mg/mL.

`COc1ccc(CCNC(=O)c2cc(=O)[nH]c3ccccc23)cc1`: the solubility (kinetic) worked out at 0.0019 mg/mL (≈ 5.89 µM).

`O=C(COC(=O)c1ccccc1Br)Nc1ccccc1F` had a solubility (kinetic) of 0.0054 mg/mL (≈ 15.3 µM).

The compound `O=C(Nc1cccc2ncccc12)c1cc([N+](=O)[O-])ccc1Cl` had a solubility (kinetic) of 0.0032 mg/mL (≈ 9.76 µM).

`CCN(CC)S(=O)(=O)c1ccc(C(=O)O)cc1` had a kinetic solubility of 0.0304 mg/mL (≈ 118 µM).

Regarding `O=C(Nc1ccc(OCC(F)(F)C(F)F)cc1)c1ccncc1`, the solubility (kinetic) is more than 0.0492 mg/mL.

As to `Cc1ccc(S(=O)(=O)CCC(=O)NC2CCCC2)cc1`, the kinetic solubility is more than 0.0443 mg/mL.

As for `CN(Cc1ccccc1)C(=S)NC(=O)c1ccccc1`, the kinetic solubility amounted to 0.0075 mg/mL (≈ 26.4 µM).

`C(=N\Nc1ccccn1)/c1cccnc1` came in with a kinetic solubility of more than 0.0297 mg/mL.

Take `C=CCSc1nc2ccccc2n2cnnc12`: the kinetic solubility was more than 0.0363 mg/mL.

Consider `O=C(Nc1ccc(NC(=O)C2CC2)cc1)c1cccs1`, for which the solubility (kinetic) was 0.0033 mg/mL (≈ 11.5 µM).

In turn, `CC(C)(C)c1ccc(C(=O)NCCCNC(=O)c2ccccn2)cc1` displayed a kinetic solubility of more than 0.0509 mg/mL.

Take `COc1cc(NC(=O)C(c2ccccc2)c2ccccc2)c(C(=O)O)cc1OC`: the solubility (kinetic) is more than 0.0587 mg/mL.

Turning to `NC(=O)CCC(NC(=S)Nc1ccccc1)C(=O)O` (centres undefined), the kinetic solubility was 0.0393 mg/mL (≈ 140 µM).

For `COc1ccccc1/C=C(\NC(=O)c1ccccc1)C(=O)NCc1ccco1`, the solubility (kinetic) was determined as 0.007 mg/mL (≈ 18.6 µM).

`Cc1cccc(-n2c(C)nc3ccsc3c2=O)c1` had a kinetic solubility of 0.0358 mg/mL (≈ 140 µM).

`O=C(Nc1ccccc1C(=O)NCCc1ccc(O)cc1)c1ccco1` had a kinetic solubility of 0.0242 mg/mL (≈ 69.1 µM).

As to `Cc1cc(C)cc(NC(=O)CCn2ccnc2)c1`, the kinetic solubility was more than 0.0365 mg/mL.

In turn, `C=C(C)COc1ccc(-c2nc(N)ncc2-c2ccc(Cl)cc2)c(O)c1` showed a solubility (kinetic) of 0.0019 mg/mL (≈ 5.17 µM).

`Cc1ccc(/C=C(\C#N)C(=O)N2CCCC2)c(C)c1`: the kinetic solubility is more than 0.0381 mg/mL.

As for `O=C(O)C1C2C=CC(C2)C1C(=O)NCc1ccccc1F` (centres undefined), the kinetic solubility was more than 0.0434 mg/mL.

`CCCS(=O)(=O)N1CCN=C1SCc1ccc(F)cc1` showed a kinetic solubility of more than 0.0475 mg/mL.

`CCC(=O)Nc1ccc(S(=O)(=O)Nc2nccs2)cc1` showed a solubility (kinetic) of 0.0455 mg/mL (≈ 146 µM).

`O=S(=O)(Cc1ncc(C(F)(F)F)cc1Cl)c1ccccc1` returned a solubility (kinetic) of more than 0.0504 mg/mL.

Regarding `CN(CC#CC(O)(c1ccccc1)c1ccccc1)C(C)(C)C`, the solubility (kinetic) was more than 0.0461 mg/mL.

In turn, `Cc1csc(NC(=O)CSc2nccn2C)n1` registered a solubility (kinetic) of more than 0.0403 mg/mL.

With `O=C(NC1CCCC1)C(=O)c1c[nH]c2ccccc12`, the solubility (kinetic) is 0.0121 mg/mL (≈ 47.2 µM).

Compound `COc1ccc(CNC(=O)COC(=O)/C=C/c2ccc(Cl)cc2)cc1` registered a solubility (kinetic) of less than 0.0008 mg/mL.

For the compound `O=C(Cc1nc2ccccc2[nH]1)c1ccc([N+](=O)[O-])cc1`, the solubility (kinetic) stood at 0.0378 mg/mL (≈ 134 µM).

As for `COc1ccc(NC(=O)CCC(=O)c2ccc(C(C)C)cc2)cc1`, the kinetic solubility was less than 0.0007 mg/mL.

In turn, `CC1CN(C(=O)NCc2ccccc2)c2cc(Cl)ccc2O1` (centres undefined) had a kinetic solubility of 0.0063 mg/mL (≈ 19.9 µM).

`CCC(=O)c1cn(CC(=O)Nc2ccccc2)c2ccccc12` displayed a kinetic solubility of less than 0.0003 mg/mL.

As to `COc1ccccc1NC(=O)N1CCC(c2nc3ccccc3o2)CC1`, the solubility (kinetic) worked out at 0.0449 mg/mL (≈ 128 µM).

The compound `CN(CC(=O)NCCCn1ccnc1)S(=O)(=O)c1ccc(Cl)cc1` yielded a kinetic solubility of more than 0.0556 mg/mL.

For `O=C(CSc1nccc(-c2cccs2)n1)Nc1ccc(Cl)cc1`, the kinetic solubility came out at 0.0014 mg/mL (≈ 3.87 µM).

On to `O=C(COC(=O)c1ccc[n+]([O-])c1)Nc1ccc([N+](=O)[O-])cc1Cl`, for which the solubility (kinetic) is more than 0.0528 mg/mL.

On to `Nc1ccccc1C(=O)NCCN1CCNC1=O`, for which the kinetic solubility turned out to be 0.0142 mg/mL (≈ 57.2 µM).

The compound `O=C(Nc1cc2c(cc1Br)OCCO2)c1cccnc1` yielded a kinetic solubility of more than 0.0503 mg/mL.

As for `C/C(=N\OCC(=O)NC(C)C)c1cccs1`, the kinetic solubility came out at 0.0325 mg/mL (≈ 135 µM).

With `COC(=O)Cc1c(O)ccn(Cc2ccc(Cl)c(Cl)c2)c1=O`, the kinetic solubility is more than 0.0513 mg/mL.

Compound `CC(=O)N1CCC(C(=O)Nc2cc(C)cc(C)c2)CC1` registered a solubility (kinetic) of more than 0.0412 mg/mL.

Take `C=CCOC(=O)C1=C(C)NC(=O)NC1c1ccc(O)cc1` (centres undefined): the solubility (kinetic) is more than 0.0432 mg/mL.

The compound `O=C(NCCc1ccccc1)C(=O)Nc1ccc2c(c1)OCCO2` yielded a kinetic solubility of less than 0.0003 mg/mL.

For `Cc1ccc(NC(=O)c2c([N+](=O)[O-])cnn2C)cc1C`, the kinetic solubility is more than 0.0411 mg/mL.

`C=CCSc1nsc(NC(=O)Nc2cccc(C(C)=O)c2)n1` registered a solubility (kinetic) of 0.0019 mg/mL (≈ 5.68 µM).

`CN(C)/C(=N\S(=O)(=O)c1ccc(Br)cc1)c1ccccc1` returned a solubility (kinetic) of 0.0502 mg/mL (≈ 137 µM).

In turn, `Cc1cccc(C(C)C)c1NC(=O)c1ccc(OCC2CCCO2)cc1` (centres undefined) registered a solubility (kinetic) of 0.0121 mg/mL (≈ 34.2 µM).

The compound `CCOC(=O)c1c(NC(=O)C2CCCO2)sc(C)c1C` (centres undefined) gave a kinetic solubility of 0.03 mg/mL (≈ 101 µM).

The compound `Clc1ccc(-c2ncc3ccccn23)c(Cl)c1` displayed a solubility (kinetic) of 0.0225 mg/mL (≈ 85.5 µM).

In the case of `CCn1c(=O)c(C(=O)NC(C)c2ccccc2)c(O)c2ccccc21` (centres undefined), the solubility (kinetic) is less than 0.0004 mg/mL.

Regarding `CCC1CCCCN1C(=O)c1cc(S(=O)(=O)N2CCOCC2)ccc1C` (centres undefined), the solubility (kinetic) was more than 0.0571 mg/mL.

`O=C(O)CC(Cc1ccc(Cl)cc1)C(=O)Nc1cc(Cl)ccc1Cl` (centres undefined) returned a kinetic solubility of 0.0421 mg/mL (≈ 109 µM).

The compound `O=C(Nc1ccon1)Nc1cc(Cl)ccc1Cl` showed a kinetic solubility of 0.0014 mg/mL (≈ 5.15 µM).

In turn, `COC(=O)c1ccc(N2CCOCC2)c(NC(=O)c2ccco2)c1` yielded a kinetic solubility of 0.0028 mg/mL (≈ 8.48 µM).
